Patent US9302999B2, “Substituted triazoles as herbicides” (E. I. DU PONT DE NEMOURS AND COMPANY, priority 2012, dated 2016)

Experiments:
Type in all cases: in vivo
[1] = system: foxtail, green (green foxtail, Setaria viridis); assay: Test C pre-/postemergence: foxtail, green
In short: (§1)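 Visual injury scored 0–100 (100 = complete control) against untreated controls after 13–15 greenhouse days. Surfactant-containing solvent formulations applied either to soil after sowing (loam/sand) or over 1- to 4-leaf plants, 2–18 cm tall.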

[2] = system: surinam grass (Brachiaria decumbens); assay: Test C pre-/postemergence: surinam grass
In short: as §1

[3] = system: barley (winter barley, Hordeum vulgare); assay: Test C postemergence: barley
In short: (§2)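 Seedlings are raised in pots of peat-based medium to 2–18 cm (1- to 4-leaf stage). The formulated compound is then applied postemergence. Plants stay in the greenhouse for 13 to 15 days and are rated visually against controls, where 0 means no effect and 100 complete control.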

[4] = system: woolly cupgrass (Eriochloa villosa); assay: Test C pre-/postemergence: woolly cupgrass
In short: as §1

[5] = system: bermudagrass (Cynodon dactylon); assay: Test C pre-/postemergence: bermudagrass
In short: as §1

[6] = system: windgrass (Apera spica-venti); assay: Test C postemergence: windgrass
In short: as §2

[7] = system: bromegrass, downy (downy bromegrass, Bromus tectorum); assay: Test C pre-/postemergence: bromegrass, downy
In short: as §1

[8] = system: goosegrass (Eleusine indica); assay: Test C pre-/postemergence: goosegrass
In short: as §1

[9] = system: deadnettle (henbit deadnettle, Lamium amplexicaule); assay: Test C postemergence: deadnettle
In short: as §2

[10] = Postemergence, 31 g ai/ha, scale 0 to 100 (0 no effect, 100 complete control)
[11] = Postemergence, 62 g ai/ha, scale 0 to 100 (0 no effect, 100 complete control)
[12] = Postemergence, 125 g ai/ha, scale 0 to 100, 0 no effect, 100 complete control
[13] = Postemergence, 250 g ai/ha, scale 0 to 100
[14] = Preemergence, 31 g ai/ha, scale of 0 to 100, 0 is no effect, 100 is complete control
[15] = Preemergence, 62 g ai/ha, scale of 0 to 100, 0 is no effect, 100 is complete control
[16] = Preemergence, 125 g ai/ha, scale 0 to 100, 0 no effect, 100 complete control
[17] = Preemergence, 250 g ai/ha, scale 0 to 100, 0 no effect, 100 complete control
[18] = 31 g ai/ha, scale 0 to 100 (0 no effect, 100 complete control)
[19] = 62 g ai/ha, scale 0 to 100 (0 no effect, 100 complete control)
[20] = 125 g ai/ha, scale 0 to 100, 0 no effect, 100 complete control
[21] = Preemergence, 62 g ai/ha, scale 0 to 100, 0 no effect, 100 complete control

Structure (SMILES): Cc1nn(-c2ccc(C(F)(F)F)cn2)nc1Cc1cccc(C(F)(F)F)c1 [Compound 106]
- Plant response rating, Foxtail, Green [1, 10]: 50
- Plant response rating, Foxtail, Green [1, 11]: 50
- Plant response rating, Foxtail, Green [1, 12]: 70
- Plant response rating, Foxtail, Green [1, 13]: 85
- Plant response rating, Foxtail, Green [1, 14]: 90
- Plant response rating, Foxtail, Green [1, 15]: 95
- Plant response rating, Foxtail, Green [1, 16]: 95
- Plant response rating, Foxtail, Green [1, 17]: 95
- Plant response rating, Surinam Grass [2, 10]: 20
- Plant response rating, Surinam Grass [2, 11]: 25
- Plant response rating, Surinam Grass [2, 12]: 35
- Plant response rating, Surinam Grass [2, 13]: 40
- Plant response rating, Surinam Grass [2, 14]: 5
- Plant response rating, Surinam Grass [2, 15]: 20
- Plant response rating, Surinam Grass [2, 16]: 80
- Plant response rating, Surinam Grass [2, 17]: 90
- Plant response rating, Barley [3, 18]: 15
- Plant response rating, Barley [3, 19]: 25
- Plant response rating, Barley [3, 20]: 35
- Plant response rating, Barley ([3]; 250 g ai/ha, scale 0 to 100): 40
- Plant response rating, Cupgrass, Woolly [4, 10]: 5
- Plant response rating, Cupgrass, Woolly [4, 11]: 45
- Plant response rating, Cupgrass, Woolly [4, 12]: 45
- Plant response rating, Cupgrass, Woolly [4, 13]: 50
- Plant response rating, Cupgrass, Woolly [4, 14]: 5
- Plant response rating, Cupgrass, Woolly [4, 15]: 60
- Plant response rating, Cupgrass, Woolly [4, 16]: 80
- Plant response rating, Cupgrass, Woolly [4, 17]: 90
- Plant response rating, Bermudagrass [5, 10]: 40
- Plant response rating, Bermudagrass [5, 11]: 40
- Plant response rating, Bermudagrass [5, 12]: 55
- Plant response rating, Bermudagrass [5, 13]: 80
- Plant response rating, Bermudagrass [5, 14]: 100
- Plant response rating, Bermudagrass [5, 21]: 100
- Plant response rating, Bermudagrass [5, 16]: 100
- Plant response rating, Bermudagrass [5, 17]: 100
- Plant response rating, Windgrass [6, 18]: 50
- Plant response rating, Windgrass [6, 19]: 65
- Plant response rating, Windgrass [6, 20]: 80
- Plant response rating, Windgrass ([6]; 250 g ai/ha, scale 0 to 100): 85
- Plant response rating, Bromegrass, Downy [7, 10]: 30
- Plant response rating, Bromegrass, Downy [7, 11]: 35
- Plant response rating, Bromegrass, Downy [7, 12]: 40
- Plant response rating, Bromegrass, Downy [7, 13]: 40
- Plant response rating, Bromegrass, Downy [7, 14]: 0
- Plant response rating, Bromegrass, Downy [7, 21]: 5
- Plant response rating, Bromegrass, Downy [7, 16]: 40
- Plant response rating, Bromegrass, Downy [7, 17]: 60
- Plant response rating, Goosegrass [8, 10]: 10
- Plant response rating, Goosegrass [8, 11]: 35
- Plant response rating, Goosegrass [8, 12]: 45
- Plant response rating, Goosegrass [8, 13]: 55
- Plant response rating, Goosegrass [8, 14]: 80
- Plant response rating, Goosegrass [8, 15]: 98
- Plant response rating, Goosegrass [8, 16]: 98
- Plant response rating, Goosegrass [8, 17]: 100
- Plant response rating, Deadnettle [9, 18]: 75
- Plant response rating, Deadnettle [9, 19]: 80
- Plant response rating, Deadnettle [9, 20]: 90
- Plant response rating, Deadnettle ([9]; 250 g ai/ha, scale 0 to 100): 90

Structure (SMILES): Cc1nn(-c2ccc(C(F)(F)F)cc2)nc1Oc1ccnc(C(F)(F)F)c1 [Compound 120]
- Plant response rating, Foxtail, Green [1, 10]: 15
- Plant response rating, Foxtail, Green [1, 11]: 85
- Plant response rating, Foxtail, Green [1, 12]: 100
- Plant response rating, Foxtail, Green [1, 13]: 100
- Plant response rating, Foxtail, Green [1, 14]: 90
- Plant response rating, Foxtail, Green [1, 15]: 90
- Plant response rating, Foxtail, Green [1, 16]: 90
- Plant response rating, Foxtail, Green [1, 17]: 90
- Plant response rating, Surinam Grass [2, 10]: 5
- Plant response rating, Surinam Grass [2, 11]: 5
- Plant response rating, Surinam Grass [2, 12]: 20
- Plant response rating, Surinam Grass [2, 13]: 20
- Plant response rating, Surinam Grass [2, 14]: 65
- Plant response rating, Surinam Grass [2, 15]: 95
- Plant response rating, Surinam Grass [2, 16]: 98
- Plant response rating, Surinam Grass [2, 17]: 100
- Plant response rating, Barley [3, 18]: 20
- Plant response rating, Barley [3, 19]: 30
- Plant response rating, Barley [3, 20]: 40
- Plant response rating, Barley ([3]; 250 g ai/ha, scale 0 to 100): 55
- Plant response rating, Cupgrass, Woolly [4, 10]: 10
- Plant response rating, Cupgrass, Woolly [4, 11]: 10
- Plant response rating, Cupgrass, Woolly [4, 12]: 40
- Plant response rating, Cupgrass, Woolly [4, 13]: 45
- Plant response rating, Cupgrass, Woolly [4, 14]: 90
- Plant response rating, Cupgrass, Woolly [4, 15]: 95
- Plant response rating, Cupgrass, Woolly [4, 16]: 98
- Plant response rating, Cupgrass, Woolly [4, 17]: 98
- Plant response rating, Bermudagrass [5, 10]: 5
- Plant response rating, Bermudagrass [5, 11]: 5
- Plant response rating, Bermudagrass [5, 12]: 5
- Plant response rating, Bermudagrass [5, 13]: 10
- Plant response rating, Bermudagrass [5, 14]: 98
- Plant response rating, Bermudagrass [5, 21]: 98
- Plant response rating, Bermudagrass [5, 16]: 98
- Plant response rating, Bermudagrass [5, 17]: 100
- Plant response rating, Windgrass [6, 18]: 50
- Plant response rating, Windgrass [6, 19]: 55
- Plant response rating, Windgrass [6, 20]: 90
- Plant response rating, Bromegrass, Downy [7, 10]: 15
- Plant response rating, Bromegrass, Downy [7, 11]: 15
- Plant response rating, Bromegrass, Downy [7, 12]: 30
- Plant response rating, Bromegrass, Downy [7, 14]: 45
- Plant response rating, Bromegrass, Downy [7, 21]: 85
- Plant response rating, Bromegrass, Downy [7, 16]: 90
- Plant response rating, Bromegrass, Downy [7, 17]: 90
- Plant response rating, Goosegrass [8, 10]: 5
- Plant response rating, Goosegrass [8, 11]: 5
- Plant response rating, Goosegrass [8, 12]: 10
- Plant response rating, Goosegrass [8, 13]: 45
- Plant response rating, Goosegrass [8, 14]: 98
- Plant response rating, Goosegrass [8, 15]: 98
- Plant response rating, Goosegrass [8, 16]: 98
- Plant response rating, Goosegrass [8, 17]: 98
- Plant response rating, Deadnettle [9, 18]: 100
- Plant response rating, Deadnettle [9, 19]: 100
- Plant response rating, Deadnettle [9, 20]: 100
- Plant response rating, Deadnettle ([9]; 250 g ai/ha, scale 0 to 100): 100
